e = 2'-O-(2-methoxyethyl) (MOE); d = 2'-deoxy (DNA)
Tests used:
Format in all cases: in vivo, mouse
[1] = tested on: intrinsic pathway of blood coagulation; assay: Activated Partial Thromboplastin Time (aPTT) in platelet poor plasma of treated mice, reported as INR
Protocol: (§1) Prothrombin Time (PT) and Activated Partial Thromboplastin Time (aPTT) were measured using platelet poor plasma (PPP) from mice treated with ISIS 403102. PT and aPTT values provided in Table 20 are reported as International Normalized Ratio (INR) values. INR values for PT and aPTT were determined by dividing the PT or aPTT value for the experimental group by the PT or aPTT for the PBS treated group. This ratio was then raised to the power of the International Sensitivity Index (ISI) of the tissue factor used.
as §1, with “in Table 22 are reported” for “in Table 20 are reported”, “experimental group (i.e. 50 mg/kg treatment with ISIS 403102) by the” for “experimental group by the”
as §1, with “in Table 24 are reported” for “in Table 20 are reported”, “experimental group (i.e. 50 mg/kg treatment with ISIS 403102) by the” for “experimental group by the”

platelet factor-4 (PF-4) = assay: FeCl3 induced venous thrombosis (VT) model, real-time RT-PCR quantification of PF-4 in vena cava as measure of thrombus formation; conditions: for PF-4 (percent of PF-4 mRNA as compared to the PBS + FeCl3 control) / PF-4 (percentage compared to PBS controls): BALB/c mice; for PF-4 (percent of PF-4 mRNA as compared to the PBS + FeCl3 control): no Plavix; for PF-4 (percentage compared to PBS controls): vena cava
Protocol: Two control groups of BALB/c mice were treated with PBS, administered subcutaneously twice a week for 3 weeks. Thrombus formation was induced with FeCl3 in half of the mice while the rest of the mice were assayed for tail bleeding. […] Thrombus formation was induced with FeCl3 in all groups of the VT mice except the first control group.
(§2) In mice undergoing FeCl3 treatment, thrombus formation was induced by applying a piece of filter paper (2×4 min) pre-saturated with 10% FeCl3 solution directly on the vena cava. After 3 minutes of exposure, the filter paper was removed. Thirty minutes after the filter paper application, a fixed length of the vein containing the thrombus was dissected out for platelet analysis. Liver was collected for RNA analysis.
(§3) Real-time RT-PCR quantification of platelet factor-4 (PF-4) was used to quantify platelets in the vena cava as a measure of thrombus formation.
Six additional groups of BALB/c mice was treated with 0.5 mg/kg, 1 mg/kg, 2 mg·kg, 3 mg/kg, 4 mg/kg, or 5 mg/kg of warfarin, administered intraperioneally daily for 6 days. Four hours after the last dose of warfarin, mice were sacrificed. A control group of BALB/c mice were treated with PBS, administered subcutaneously twice a week for 3 weeks. Two days after the last dose of PBS, mice were anesthetized with 150 mg/kg ketamine mixed with 10 mg/kg xylazine administered by intraperitoneal injection. Thrombus formation was induced with FeCl3 in groups of mice except the first control group.
as §2, with “mm)” for “min)”
as §3
Thrombus formation was induced with FeCl3 in all of the mice except the first […] control groups. All mice were anesthetized with 150 mg/kg of ketamine mixed with 10 mg/kg of xylazine administered by intraperitoneal injection.
After 3 minutes of exposure, the filter paper was removed. Thirty minutes after the filter paper application, a fixed length of the vein containing the thrombus was dissected out for platelet analysis.
Real-time PCR quantification of PF-4 was used to quantify platelets in the vena cava as a measure of thrombus formation. […] Data is presented as percent of PF-4 mRNA as compared to the PBS+ FeCl3 control, […]

[2] = tested on: extrinsic pathway of blood coagulation; assay: Prothrombin Time (PT) in platelet poor plasma of treated mice, reported as INR
Protocol: as §1
as §1, with “in Table 22 are reported” for “in Table 20 are reported”, “experimental group (i.e. 50 mg/kg treatment with ISIS 403102) by the” for “experimental group by the”
as §1, with “in Table 24 are reported” for “in Table 20 are reported”, “experimental group (i.e. 50 mg/kg treatment with ISIS 403102) by the” for “experimental group by the”

[3] = BALB/c mice, 5 mg/kg s.c. twice a week for 3 weeks
[4] = BALB/c mice, 10 mg/kg s.c. twice a week for 3 weeks
[5] = BALB/c mice, 25 mg/kg s.c. twice a week for 3 weeks
[6] = BALB/c mice, 50 mg/kg s.c. twice a week for 3 weeks
[7] = BALB/c mice, 50 mg/kg, 1 dose, 1 day after last dose
[8] = BALB/c mice, 50 mg/kg, 1 dose, 3 days after last dose
[9] = BALB/c mice, 50 mg/kg, 2 doses, 3 days after last dose
[10] = BALB/c mice, 50 mg/kg, 4 doses, 3 days after last dose
[11] = BALB/c mice, 50 mg/kg, 6 doses, 2 days after last dose
[12] = BALB/c mice, 50 mg/kg, 6 doses, 7 days after last dose
[13] = BALB/c mice, 50 mg/kg, 6 doses, 14 days after last dose
[14] = BALB/c mice, 50 mg/kg, 6 doses, 28 days after last dose
[15] = BALB/c mice, 50 mg/kg, 6 doses, 42 days after last dose
[16] = BALB/c mice, 50 mg/kg, 6 doses, 56 days after last dose
[17] = BALB/c mice, single dose 50 mg/kg, day 1
[18] = BALB/c mice, single dose 50 mg/kg, day 2
[19] = BALB/c mice, single dose 50 mg/kg, day 3
[20] = BALB/c mice, single dose 50 mg/kg, day 4
[21] = BALB/c mice, single dose 50 mg/kg, day 6
[22] = BALB/c mice, single dose 50 mg/kg, day 8
[23] = BALB/c mice, single dose 50 mg/kg, day 12
[24] = BALB/c mice, single dose 50 mg/kg, day 24
[25] = BALB/c mice, single dose 50 mg/kg, day 56
[26] = Example 11, 5-50 mg/kg sc twice a week for 3 weeks
[27] = Example 13, 6 doses, day 7 to day 56

## CCATAGAACAGCTTCACAGG (sugars from the 5' end e5 d10 e5, backbone and methylation of C not given here) [ISIS 403102]
[1]; [3]
  aPTT INR: 1.05
[1]; [4]
  aPTT INR: 1.04
[1]; [5]
  aPTT INR: 1.09
[1]; [6]
  aPTT INR: 1.16
[1]; [7]
  aPTT INR: 1.08
[1]; [8]
  aPTT INR: 1.10
[1]; [9]
  aPTT INR: 1.29
[1]; [10]
  aPTT INR: 1.53
[1]; [11]
  aPTT INR: 1.62
[1]; [12]
  aPTT INR: 1.67
[1]; [13]
  aPTT INR: 1.25
[1]; [14]
  aPTT INR: 0.90
[1]; [15]
  aPTT INR: 1.00
[1]; [16]
  aPTT INR: 0.98
[1]; [17]
  aPTT INR: 1.00
[1]; [18]
  aPTT INR: 1.05
[1]; [19]
  aPTT INR: 1.24
[1]; [20]
  aPTT INR: 1.15
[1]; [21]
  aPTT INR: 1.23
[1]; [22]
  aPTT INR: 1.18
[1]; [23]
  aPTT INR: 1.18
[1]; [24]
  aPTT INR: 1.02
[1]; [25]
  aPTT INR: 0.97
[1]; [26]
  aPTT compared to the control: slightly prolonged
[1]; [27]
  aPTT over time: aPTT decreased
[1]; single dose 50 mg/kg, day 4
  aPTT INR: 1.24 INR
[1]; single dose 50 mg/kg, day 56
  aPTT INR: 0.97 INR
[1]; single dose 50 mg/kg, starting value (day not given, day 1 implied)
  aPTT INR: 1.00 INR
Platelet factor-4 (PF-4); with FeCl3, ISIS 403102 20 mg/kg s.c. twice a week for three weeks
  PF-4 (percent of PF-4 mRNA as compared to the PBS + FeCl3 control): 39%
Platelet factor-4 (PF-4); without FeCl3, ISIS 403102 20 mg/kg s.c. twice a week for three weeks
  PF-4 (percent of PF-4 mRNA as compared to the PBS + FeCl3 control): 2%
Platelet factor-4 (PF-4); Example 14, 25, 37.5 or 50 mg/kg sc twice a week for 3 weeks
  PF-4 in comparison to the PBS control: reduction of PF-4
Platelet factor-4 (PF-4); Example 16, dosages of 5 mg/kg and higher, sc twice a week for 3 weeks
  PF-4 in comparison to the PBS control: dose-dependent reduction of PF-4
Platelet factor-4 (PF-4); FeCl3 (Example 16), 1 mg/kg s.c. twice a week for 3 weeks
  PF-4 (percentage compared to PBS controls): 120%
Platelet factor-4 (PF-4); FeCl3 (Example 16), 3 mg/kg s.c. twice a week for 3 weeks
  PF-4 (percentage compared to PBS controls): 112%
Platelet factor-4 (PF-4); FeCl3 (Example 16), 5 mg/kg s.c. twice a week for 3 weeks
  PF-4 (percentage compared to PBS controls): 69%
Platelet factor-4 (PF-4); FeCl3 (Example 16), 10 mg/kg s.c. twice a week for 3 weeks
  PF-4 (percentage compared to PBS controls): 22%
Platelet factor-4 (PF-4); FeCl3 (Example 16), 20 mg/kg s.c. twice a week for 3 weeks
  PF-4 (percentage compared to PBS controls): 41%
Platelet factor-4 (PF-4); FeCl3 (Example 16), 40 mg/kg s.c. twice a week for 3 weeks
  PF-4 (percentage compared to PBS controls): 38%
Platelet factor-4 (PF-4); FeCl3, 25 mg/kg s.c. twice a week for 3 weeks
  PF-4 (percentage compared to PBS controls): 34%
Platelet factor-4 (PF-4); FeCl3, 37.5 mg/kg s.c. twice a week for 3 weeks
  PF-4 (percentage compared to PBS controls): 24%
Platelet factor-4 (PF-4); FeCl3, 50 mg/kg s.c. twice a week for 3 weeks
  PF-4 (percentage compared to PBS controls): 24%
[2]; [3]
  PT INR: 1.09
[2]; [4]
  PT INR: 1.33
[2]; [5]
  PT INR: 2.33
[2]; [6]
  PT INR: 4.37
[2]; [7]
  PT INR: 1.04
[2]; [8]
  PT INR: 1.20
[2]; [9]
  PT INR: 1.43
[2]; [10]
  PT INR: 2.13
[2]; [11]
  PT INR: 1.64
[2]; [12]
  PT INR: 2.08
[2]; [13]
  PT INR: 1.37
[2]; [14]
  PT INR: 0.96
[2]; [15]
  PT INR: 1.00
[2]; [16]
  PT INR: 0.99
[2]; [17]
  PT INR: 1.11
[2]; [18]
  PT INR: 1.64
[2]; [19]
  PT INR: 1.81
[2]; [20]
  PT INR: 1.97
[2]; [21]
  PT INR: 1.59
[2]; [22]
  PT INR: 1.55
[2]; [23]
  PT INR: 1.30
[2]; [24]
  PT INR: 1.12
[2]; [25]
  PT INR: 1.10
[2]; [26]
  PT compared to the control: significantly prolonged
[2]; [27]
  PT over time: PT decreased
[2]; single dose 50 mg/kg, day 1
  PT INR: 1.11 INR
[2]; single dose 50 mg/kg, day 4
  PT INR: 1.97 INR
[2]; single dose 50 mg/kg, day 56
  PT INR: 1.10 INR

From patent publication US20120214862A1, “MODULATION OF FACTOR 7 EXPRESSION” (ISIS Pharmaceuticals, Inc., priority 2009, published 2012)
